In patent publication US4661495A, “Arphamenine-related compounds useful for potentiating the immune response in a living animal” (Zaidan Hojin Biseibutsu Kagaku Kenkyu Kai, priority 1984, dated 1987):

Experiments:
carboxypeptidase A = molecular target: T1, carboxypeptidase A (Bos taurus, UniProt P00730); assay: inhibitory activity of the compounds to carboxypeptidase A; assay type: biochemical, bovine; conditions: hippuryl-L-phenylalanine substrate, pH 7.5, 37° C., 30 minutes; read-out: IC50 (50% Inhibition Concentration) (converted)
T1 construct: purchased Sigma Co. Type 1; host or cells: bovine pancreas
T1 sequence (P00730 111-417 limits assumed): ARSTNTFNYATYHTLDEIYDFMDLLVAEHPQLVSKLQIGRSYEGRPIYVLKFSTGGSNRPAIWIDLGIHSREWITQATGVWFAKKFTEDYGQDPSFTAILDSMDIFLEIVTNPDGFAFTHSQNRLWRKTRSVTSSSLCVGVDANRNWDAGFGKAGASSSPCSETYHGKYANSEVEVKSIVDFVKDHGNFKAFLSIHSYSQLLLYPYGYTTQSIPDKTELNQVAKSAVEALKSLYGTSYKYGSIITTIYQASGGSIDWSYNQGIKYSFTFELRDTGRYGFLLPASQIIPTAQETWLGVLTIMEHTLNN
Description: (1) Method of testing the inhibitory activity of the compounds to carboxypeptidase A: The carboxypeptidase A-inhibitory activity was determined according to a modification of the method of Hayakari et al. (M. Hayakari et al., "Analytical Biochemistry" 84, 361-369, 1978). Thus, a mixture of 0.05 ml of a solution of 10 mM hippuryl-L-phenylalanine (as substrate), 0.25 ml of 0.05 M Tris-hydrochloride buffer (pH 7.5) containing 0.9 M NaCl and 0.15 ml of a solution containing a test compound as produced in Example 1, 2, 3 or 4 shown hereinafter was heated at 37° C. for 3 minutes. To said mixture was then added 0.05 ml of a carboxypeptidase A (Type 1, as extracted from bovine pancreas, a product of Sigma Co.), and the enzymatic reaction was effected at 37° C. for 30 minutes. The reaction solution was admixed with 0.03 ml of aqueous 1N sodium hydroxide to stop the reaction. After allowing to stand at ambient temperature for 15 minutes, the reaction solution was admixed with 2 ml of 0.06 M phosphate buffer (pH 7.2) and with 2 ml of a solution of 1% cyanuric chloride in ethylene glycol monomethylester. After the reaction solution was allowed to stand at ambient temperature for 5 minutes, absorbance (a) at 382 nm of the reaction solution was measured. For the blank test, the above procedure was repeated using said buffer solutions without the test compound, and the absorbance (b) was measured in the blank test. The percentage for inhibition to carboxypeptidase A was calculated according to the equation: [formula] On the basis of the values of percentages of inhibition measured by the above procedure, 50% Inhibition Concentration (IC50) was evaluated.

ICR-strain mice = assay: Toxicity after intraperitoneal administration; assay type: in vivo; conditions: 100 mg/Kg intraperitoneally, ICR-strain mice (male, 5 weeks-aged)
[1] = tested on: D.T.H. response with sheep red blood cells; assay: effect on cell-mediated or cellular immunity: Delayed Type Hypersensitivity (D.T.H.) with sheep red blood cells; assay type: in vivo, CDF1-mouse; conditions: oral, 24 hours after challenge, * P < 0.05
Description: (2) The effect on cell-mediated or cellular immunity:
The effect of the new arphamenine-related compounds on cell-mediated or cellular immunity was evaluated by measuring Delayed Type Hypersensitivity (D.T.H.) using mice which received sheep red blood cell inoculated as antigen into the footpad of mice for immunization (see P. H. Lagrange, G. B. Mackaness and T. E. Miller: "J. Exp. Med.", 139, 1529-1539 (1974)).
A suspension of 10^8 sheep red blood cells (SRBC) in 0.05 ml of physiological saline was subcutaneously injected into one footpad of each CDF1 -mouse (female, 8 weeks-aged, 5 mice in each group) for immunization. Simultaneously, the mouse under test was given orally the test compound at a dosage of 5 mg/Kg, 0.5 mg/Kg or 0.05 mg/Kg as a solution of the test compound which was prepared by dissolving the test compound in physiological saline and then filtering the resulting solution by a millipore filter. On 4 days after the administration of the test compound, 10^8 sheep red blood cells were subcutaneously injected into another footpad of each test mouse for secondary challenge of the D.T.H. response. 24 Hours after the challenge, the thickness of the footpads was measured with calipers. Concurrently, the thickness of footpad of control mice which had received the injection of SRBC and physiological saline without the administration of the test compound was also measured in each mouse.
The effect of the test compound on the DTH response was evaluated by a percentage of increase in footpad thickness as calculated according to the following equation: [formula]

immune response = conditions: earlier publications/filings; cited from earlier work
tumor = conditions: earlier filings; cited from earlier work
carboxypeptidase = conditions: J. Antibiot., 37, 682 (1984); cited from earlier work

With Cc1cc(C)nc(NCCCC(NC(=O)c2ccccc2)C(=O)CC(Cc2ccccc2)C(=O)O)n1 (centres unmarked) [Example 1 (b), 5-benzoylamino-8-[(4,6-dimethylpyrimidin-2-yl)amino]-4-oxo-2-phenylmethyloctanoic acid] the IC50 (carboxypeptidase A) was 40.9 nM, the death (ICR-strain mice) was “no death” and the “Percentage of increase in footpad thickness” value (shortened to “Percentage of increase”) ([1]; 0.05 mg/Kg) was 107 Percentage. The “Percentage of increase” value ([1]; 0.5 mg/Kg) was 121 Percentage and the “Percentage of increase” value ([1]; 5 mg/Kg) was 128 Percentage.

For Cc1cc(C)nc(NCCCC(NC(=O)c2ccccc2)C(=O)CC(Cc2ccc(O)cc2)C(=O)O)n1 (centres unmarked) [Example 2 (b), 5-benzoylamino-8-[(4,6-dimethylpyrimidin-2-yl)amino]-2-(4'-hydroxyphenylmethyl)-4-oxo-octanoic acid], the IC50 (carboxypeptidase A) was 17.4 nM, the death (ICR-strain mice) was “no death” and the “Percentage of increase” value ([1]; 0.05 mg/Kg) was 113 Percentage. The “Percentage of increase” value ([1]; 0.5 mg/Kg) was 130 Percentage and the “Percentage of increase” value ([1]; 5 mg/Kg) was 144 Percentage.

In the case of Cc1cc(C)nc(NCCCC(NC(=O)OCc2ccccc2)C(=O)CC(Cc2ccccc2)C(=O)O)n1 (centres unmarked) [Example 3 (b), 5-benzyloxycarbonylamino-8-[(4,6-dimethylpyrimidin-2-yl)amino]-4-oxo-2-phenylmethyloctanoic acid], the IC50 (carboxypeptidase A) is reported as 123 nM, the death (ICR-strain mice) is reported as “no death” and the “Percentage of increase” value ([1]; 0.05 mg/Kg) is reported as 110 Percentage. For the same compound, the “Percentage of increase” value ([1]; 0.5 mg/Kg) was 120 Percentage and the “Percentage of increase” value ([1]; 5 mg/Kg) was 136 Percentage.

In the case of Cc1cc(C)nc(NCCCC(NC(=O)OCc2ccccc2)C(=O)CC(Cc2ccc(O)cc2)C(=O)O)n1 (centres unmarked) [Example 4 (b), 5-benzyloxycarbonylamino-8-[(4,6-dimethylpyrimidin-2-yl)amino]-2-(4'-hydroxyphenylmethyl)-4-oxo-octanoic acid], the IC50 (carboxypeptidase A) is reported as 655 nM, the death (ICR-strain mice) is reported as “no death” and the “Percentage of increase” value ([1]; 0.05 mg/Kg) is reported as 110 Percentage. The “Percentage of increase” value ([1]; 0.5 mg/Kg) was 123 Percentage and the “Percentage of increase” value ([1]; 5 mg/Kg) was 145 Percentage.

For N=C(N)NCCCC(N)C(=O)CC(Cc1ccccc1)C(=O)O (centres unmarked) [arphamenine A], the immunopotentiating activity (immune response) is listed as “immunopotentiating activity” and the antitumor activity (tumor) is listed as “antitumor activity”.

For N=C(N)NCCCC(N)C(=O)CC(Cc1ccc(O)cc1)C(=O)O (centres unmarked) [arphamenine B], the immunopotentiating activity (immune response) is given as “immunopotentiating activity” and the antitumor activity (tumor) is given as “antitumor activity”.

In the case of benzylmalic acid, the carboxypeptidase-inhibitory activity (carboxypeptidase) is given as “having a carboxypeptidase-inhibitory activity” and the immunopotentiating activity (immune response) is given as “shows an immunopotentiating activity”.
